{
  "source": "patent US8399457B2",
  "about": "“Pharmaceutical compounds” (Neuroscienze Pharmaness S.C. A.R.L., priority 2008, dated 2013)",
  "key": {"[1]": {"tested_on": "response to the pain in mice", "assay": "Hot Plate test (analgesic effect)"}, "[2]": {"tested_on": "response to the pain in mice", "assay": "Tail Flick test (analgesic effect)"}, "[3]": {"conditions": "10 mg/kg i.p., 30 min, formula (I) compounds as formates"}, "[4]": {"conditions": "10 mg/kg i.p., 60 min, formula (I) compounds as formates"}, "[5]": {"conditions": "10 mg/kg i.p., 120 min, formula (I) compounds as formates"}, "[6]": {"conditions": "10 mg/kg i.p., 240 min, formula (I) compounds as formates"}, "[7]": {"conditions": "10 mg/kg i.p., 360 min, formula (I) compounds as formates"}, "[8]": {"conditions": "20 mg/kg i.p., 30 min, as formates"}, "[9]": {"conditions": "20 mg/kg i.p., 60 min, as formates"}, "[10]": {"conditions": "20 mg/kg i.p., 120 min, as formates"}, "[11]": {"conditions": "20 mg/kg i.p., 240 min, as formates"}, "[12]": {"conditions": "20 mg/kg i.p., 360 min, as formates"}},
  "data": [
    {"smiles": "CCC(=O)N1CCC2CCC(C1)N2C/C=C(\\C)c1ccccc1", "note": "(stereo not shown) [I-Aa]", "values": [
      {"measurement": "melting point", "result": "230 to 232", "unit": "°C"},
      {"measurement": "MPE %", "setting": "[1]; [3]", "result": "49.5 ± 10.5", "unit": "%"},
      {"measurement": "MPE %", "setting": "[1]; [4]", "result": "25.1 ± 6.1", "unit": "%"},
      {"measurement": "MPE %", "setting": "[1]; [5]", "result": "6.0 ± 3.0", "unit": "%"},
      {"measurement": "MPE %", "setting": "[1]; [6]", "result": "3.2 ± 3.0", "unit": "%"},
      {"measurement": "MPE %", "setting": "[1]; [7]", "result": "4.1 ± 1.0", "unit": "%"},
      {"measurement": "MPE %", "setting": "[2]; [3]", "result": "65.5 ± 6.5", "unit": "%"},
      {"measurement": "MPE %", "setting": "[2]; [4]", "result": "20.1 ± 4.1", "unit": "%"},
      {"measurement": "MPE %", "setting": "[2]; [5]", "result": "10.0 ± 1.0", "unit": "%"},
      {"measurement": "MPE %", "setting": "[2]; [6]", "result": "3.1 ± 2.0", "unit": "%"},
      {"measurement": "MPE %", "setting": "[2]; [7]", "result": "−3.0 ± 0.5", "unit": "%"}
    ]},
    {"smiles": "CN1CC[C@]23c4c5ccc(O)c4O[C@H]2[C@@H](O)C=C[C@H]3[C@H]1C5", "note": "[Morphine, reference compound]", "values": [
      {"measurement": "MPE %", "setting": "[2]; [4]", "result": "60.5 ± 6.8", "unit": "%"},
      {"measurement": "MPE %", "setting": "[2]; [5]", "result": "39.6 ± 4.0", "unit": "%"},
      {"measurement": "MPE %", "setting": "[2]; [6]", "result": "19.1 ± 3.0", "unit": "%"},
      {"measurement": "MPE %", "setting": "[2]; [7]", "result": "6.1 ± 1.1", "unit": "%"}
    ]},
    {"smiles": "CCC(=O)N1C2CCC1CN(C/C=C(\\C)c1ccccc1)CC2", "note": "(stereo not shown) [I-Ba]", "values": [
      {"measurement": "melting point", "result": "228 to 230", "unit": "°C"},
      {"measurement": "MPE %", "setting": "[1]; [8]", "result": "68.9 ± 7.2", "unit": "%"},
      {"measurement": "MPE %", "setting": "[1]; [9]", "result": "50.5 ± 11.3", "unit": "%"},
      {"measurement": "MPE %", "setting": "[1]; [10]", "result": "7.0 ± 2.1", "unit": "%"},
      {"measurement": "MPE %", "setting": "[1]; [11]", "result": "6.0 ± 2.1", "unit": "%"},
      {"measurement": "MPE %", "setting": "[1]; [12]", "result": "−4.0 ± 2.0", "unit": "%"},
      {"measurement": "MPE %", "setting": "[2]; [8]", "result": "89.9 ± 7.0", "unit": "%"},
      {"measurement": "MPE %", "setting": "[2]; [9]", "result": "88.5 ± 10.3", "unit": "%"},
      {"measurement": "MPE %", "setting": "[2]; [10]", "result": "9.0 ± 2.5", "unit": "%"},
      {"measurement": "MPE %", "setting": "[2]; [11]", "result": "2.0 ± 1.1", "unit": "%"},
      {"measurement": "MPE %", "setting": "[2]; [12]", "result": "−2.0 ± 1.0", "unit": "%"}
    ]},
    {"smiles": "CCC(=O)N1CCC2CCC(C1)N2CC=C(c1ccccc1)c1ccccc1", "note": "(stereo not shown) [I-Ad]", "values": [
      {"measurement": "melting point", "result": "176 to 177", "unit": "°C"}
    ]},
    {"smiles": "CCC(=O)N1CCC2CCCC(C1)N2CC=C(c1ccccc1)c1ccccc1", "note": "(stereo not shown) [I-Cc]", "values": [
      {"measurement": "melting point", "result": "137 to 139", "unit": "°C"},
      {"measurement": "MPE %", "setting": "[1]; [8]", "result": "55.2 ± 10.5", "unit": "%"},
      {"measurement": "MPE %", "setting": "[1]; [9]", "result": "40.9 ± 7.8", "unit": "%"},
      {"measurement": "MPE %", "setting": "[1]; [10]", "result": "24.1 ± 7.3", "unit": "%"},
      {"measurement": "MPE %", "setting": "[1]; [11]", "result": "5.0 ± 4.0", "unit": "%"},
      {"measurement": "MPE %", "setting": "[1]; [12]", "result": "0.1 ± 1.1", "unit": "%"},
      {"measurement": "MPE %", "setting": "[2]; [8]", "result": "80.2 ± 7.5", "unit": "%"},
      {"measurement": "MPE %", "setting": "[2]; [9]", "result": "52.9 ± 8.1", "unit": "%"},
      {"measurement": "MPE %", "setting": "[2]; [10]", "result": "42.1 ± 8.3", "unit": "%"},
      {"measurement": "MPE %", "setting": "[2]; [11]", "result": "14.6 ± 3.0", "unit": "%"},
      {"measurement": "MPE %", "setting": "[2]; [12]", "result": "0.0 ± 0.8", "unit": "%"}
    ]},
    {"smiles": "CCC(=O)N1C2CCC1CN(CC=C(c1ccccc1)c1ccccc1)CC2", "note": "(stereo not shown) [I-Bd]", "values": [
      {"measurement": "melting point", "result": "184 to 186", "unit": "°C"}
    ]},
    {"smiles": "CCC(=O)N1C2CCCC1CN(CC=C(c1ccccc1)c1ccccc1)CC2", "note": "(stereo not shown) [I-Dc]", "values": [
      {"measurement": "melting point", "result": "169 to 170", "unit": "°C"}
    ]},
    {"smiles": "CCC(=O)N1C2CCC1CN(C/C=C(\\C)c1ccc(Cl)c(Cl)c1)CC2", "note": "(stereo not shown) [I-Bb]", "values": [
      {"measurement": "melting point", "result": "186 to 188", "unit": "°C"}
    ]},
    {"smiles": "CCC(=O)N1C2CCCC1CN(C/C=C(\\C)c1ccccc1)CC2", "note": "(stereo not shown) [I-Da]", "values": [
      {"measurement": "melting point", "result": "144 to 146", "unit": "°C"}
    ]},
    {"smiles": "CCC(=O)N1C2CCCC1CN(C/C=C(\\C)c1ccc(Cl)c(Cl)c1)CC2", "note": "(stereo not shown) [I-Db]", "values": [
      {"measurement": "melting point", "result": "175 to 176", "unit": "°C"}
    ]},
    {"smiles": "CCC(=O)N1CCC2CCC(C1)N2C/C=C(\\C)c1ccc(Cl)c(Cl)c1", "note": "(stereo not shown) [I-Ab]", "values": [
      {"measurement": "melting point", "result": "188 to 189", "unit": "°C"}
    ]},
    {"smiles": "CCC(=O)N1CCC2CCCC(C1)N2C/C=C(\\C)c1ccc(Cl)c(Cl)c1", "note": "(stereo not shown) [I-Cb]", "values": [
      {"measurement": "melting point", "result": "184 to 185", "unit": "°C"}
    ]},
    {"smiles": "CCC(=O)N1CCC2CCCC(C1)N2C/C=C(\\C)c1ccccc1", "note": "(stereo not shown) [I-Ca]", "values": [
      {"measurement": "melting point", "result": "106 to 108", "unit": "°C"}
    ]}
  ]
}
